Data set [1] is described as follows: In vivo pharmacokinetics in mice after single administration. Set-up: species or system CD-1 mice. The procedure:
Male CD-1 mice were used as test animals, the concentration of the compound in blood was determined after single administration to evaluate the pharmacokinetic behavior.
CD-1 mice (male, 20-40 g, 6-9 weeks, Shanghai Sippr-Bk Laboratory Animal Co., Ltd.)
The pharmacokinetic characteristics of the test compound in rodents after intravenous injection and oral administration were tested by standard protocols, in the experiment, the test compound was prepared into a clear solution or homogeneous suspension, and administered to the mice by single intravenous injection and oral administration. […] The plasma sample was added to acetonitrile solution containing the internal standard with a volume 20 times that of the plasma sample to precipitate proteins, and then centrifuged; the supernatant was separated, and water with a volume twice that of the supernatant was added to the supernatant, which was then centrifuged again; the supernatant was collected for analysis; LC-MS/MS analysis method was used to quantitatively analyze the blood drug concentration, and Phoenix WinNonlin software (Pharsight, USA) was used to calculate the pharmacokinetic parameters, such as peak concentration, time to peak concentration, clearance rate, half-life, area under the concentration-time curve, bioavailability, etc. […]

The test system of data set [2] is plasma protein. Briefly: Plasma protein binding rate (PPB) test, human plasma. The class given is in vitro ADME. The note with it: 2 μM, dialysis 37° C. 4 hours. The procedure:
(§1) The protein binding rates of the test compound in the plasma of humans, SD rats and Beagle dogs were determined.
(§2) 796 μL of blank plasma from humans, SD rats and Beagle dogs (plasma purchased from BioreclamationIVT) were taken, 4 μL of working solution of the test compound (400 μM) or warfarin working solution (400 μM) was added and the final concentration of the test compound or warfarin was 2 μM. The sample was mixed thoroughly. The final concentration of organic phase DMSO was 0.5%; 50 μL of the plasma sample treated with the test compound or warfarin was pipetted into the sample receiving plate, and a corresponding volume of blank plasma or buffer was added immediately so that the final volume in each sample well was 100 μL, the volume ratio of plasma:dialysis buffer was 1:1; 400 μL of stop solution was added to these samples, and these samples were used as T0 samples for recovery and stability determination. To samples were stored at 2° C. to 8° C. for subsequent processing together with other dialyzed samples; 150 μL of the plasma sample treated with the test compound or warfarin was added into the dosing end of each dialysis hole, and 150 μL of blank dialysis buffer was added to the receiving end corresponding to the dialysis hole. Then the dialysis plate was sealed with gas-permeable membrane and placed in a humidified 5% CO2 incubator, and incubated at 37° C. with 100 rpm shaking for 4 hours. After the dialysis, 50 μL of the dialysis buffer sample and the dialysis plasma sample was transferred to a new sample receiving plate. […] All samples were analyzed by LC/MS/MS after protein precipitation, and the plasma protein unbound rate, binding rate and recovery rate was calculated according to the following formula: % unbound rate=100*free compound concentration at the membrane buffer side/total compound concentration at the membrane plasma side, % protein binding rate=100-% unbound rate, % recovery rate=100*(free compound concentration at the membrane buffer side+total compound concentration at the membrane plasma side)/total compound concentration before dialysis.

The test system of data set [3] is plasma protein. Briefly: Plasma protein binding rate (PPB) test, SD rat plasma. The data set is classed as in vitro ADME. The note with it: 2 μM, dialysis 37° C. 4 hours. The procedure:
as §1, §2

Data set [4] can be described thus: In vivo pharmacokinetics in beagle dogs after single administration. On the procedure: Male beagle dogs were used as test animals, the concentration of the compound in blood after single administration was determined to evaluate the pharmacokinetic behavior.
Beagle dogs (Male, 6-12 kg, more than 6 months, Beijing Marshall Biotechnology Co., Ltd.).
The objective of the test was to study the pharmacokinetic characteristics of the test compound in non-rodent after intravenous injection and oral administration. In the experiment, the test compound was prepared into a clear solution or homogeneous suspension and administered to the beagle dogs by single intravenous injection or oral administration. In the intravenous injection group, the menstruum was a certain proportion of dimethyl sulfoxide in HP-β-cyclodextrin solution or a certain proportion of ethanol, polyethylene glycol 400 and physiological saline solution, the mixture was vortexed and subjected to ultrasonic treatment to prepare 2 mg/mL or […] clear solution, then filtered with microporous membrane for later use; in the oral administration group, the menstruum was a certain proportion of dimethyl sulfoxide in HP-β-cyclodextrin solution or a certain proportion of sodium carboxymethyl cellulose solution, the test compound was mixed with the menstruum, vortexed and subjected to ultrasonic treatment to prepare 2 mg/mL clear solution or 1 mg/mL homogeneous suspension for later use. After 2 mg/kg or 1 mg/kg intravenous administration or 10 mg/kg or 5 mg/kg oral administration to the Beagle dogs, a certain amount of whole blood samples were collected, centrifuged at 3000 g for 10 minutes, and the supernatant was separated to obtain plasma samples; then an acetonitrile solution containing internal standard with a volume 10 times that of the plasma sample was added to precipitate proteins, and then centrifuged; the supernatant was separated for analysis; LC-MS/MS analysis method was used to quantitatively analyze the blood drug concentration, and Phoenix WinNonlin software (Pharsight, USA) was used to calculate the pharmacokinetic parameters, such as peak concentration, time to peak concentration, clearance rate, half-life, area under the concentration-time curve, bioavailability, etc.
Among them, C0 is the initial concentration, T1/2 is the elimination half-life, Vdss is the steady-state apparent volume of distribution, Cl is the total clearance rate, AUC0-inf is the area under the plasma drug concentration-time curve from time 0 to infinity, Cmax is the peak concentration, Tmax is the time to peak concentration.

Where [5] appears, read: male, beagle, dog, plasma, 10 mg/kg, dogs, 10 mpk oral administration.

The text below walks through data of patent US11932652B2, “Pyrrolidinyl urea derivatives and application thereof in TrkA-related diseases” (ZHANGZHOU PIEN TZE HUANG PHARMACEUTICAL CO., LTD., priority 2018, dated 2024).

Structures are written as SMILES.

By AUC(0-inf) is commonly meant the area under the concentration-time curve extrapolated to infinity. By Cmax is commonly meant the peak of the concentration-time curve. Usually Tmax stands for the time from dosing to the highest level. The term bioavailability denotes the share of a dose that reaches the circulation, judged against a reference dose that is usually intravenous. A low value points to poor availability. One may read the half-life as the time needed for the level to fall by half in the phase considered. The low end stands for rapid decline, the high end for slow decline. Take `COCCN1C[C@@H](n2ccc(F)c2)[C@H](NC(=O)Nc2c(C)c(-c3cnc(C4(F)COC4)nc3)nn2-c2ccccc2)C1` [Compound 7]: the “pharmacokinetic properties and oral bioavailability (in words)” value in data set [1] was “good pharmacokinetic properties and oral bioavailability”. Besides, the “Plasma protein unbound rate, Human plasma” value in data set [2] was determined as 13.2%. Besides, the “Plasma protein unbound rate, SD Rat plasma” value in data set [3] stood at 7.1%. Also, in data set [4] (in beagle dogs), the “pharmacokinetic properties and oral bioavailability (in words)” value was “good pharmacokinetic properties and oral bioavailability”. Besides, in data set [4] (setting [5]), the AUC(0-inf) was determined as 7.69 µM·h, the Cmax turned out to be 3.95 µM, the Tmax is 0.63 h and the bioavailability was 33%. The same compound showed a half-life in data set [4] (setting [5]) of 2.2 h.
